“And” between values parts separate entries of the source, which are not always exact repeats. Equal values may be shown once.
What was measured:
[1] = Local concentration of penicillin in saliva after a troche containing 50 mg penicillin G; type: in vivo, human; settings: 50 mg troche, end of one hour; 60 min
Method: The local concentration of penicillin in the saliva was determined as follows. […] This loculated pocket of saliva was not swallowed and was not to be diluted with excess saliva from other parts of the mouth for one hour. Two samples were taken for assay to determine the peak and trough local concentrations of penicillin during the one-hour duration of medicinal treatment. At the time when the troche was completely dissolved and one hour later, aliquots of 10 microliters were pipetted from this pocket of saliva solution at the site of medication, representing the peak level and the trough level of antibiotic concentration, and transferred into 10 ml of distilled water to make a 1:1.000 dilution and into 1 ml of distilled water to make a 1:100 dilution, respectively. The diluted saliva antibiotic solutions were passed through a sterile bacteria-filter to remove any bacterial or fungal contaminants of the oral flora.
For determination of the peak concentration, 1 ml of the bacteria-free filtrate was further diluted with 9 ml of nutrient broth to achieve a 1:10,000 dilution of the saliva. Then a serial two-fold dilution was made of this 1:10,000 diluted saliva sample with an equal volume of nutrient broth in a roll of test tubes to obtain a series of 1 ml aliquots of nutrient broth in which the saliva was diluted to 20,000, 40,000, 80,000, 160,000, 320,000, 640,000, 1,280,000 and 2,560,000 folds respectively. […] Thus the final dilutions of the saliva sample were in the range of 40,000 to 5,120,000 folds.
For determining the trough concentration, the entire 1 ml of the 1:100 diluted saliva filtrate was used to make the serial dilutions so that the final dilutions of saliva sample were in the range of 4,000 to 256,000 folds in the final test culture.
As control standards, a series of test tubes containing 1 ml of nutrient broth with varying concentrations of penicillin G potassium salt ranging from 0.1 units to 10 units/ml were similarly mixed with an equal volume of nutrient broth freshly inoculated with the standard tubes of Staphylococcus aureus. Both the test and control standard tubes were incubated at 37° C. for 18 hours. Among the test tubes showing no gross evidence of bacterial growth, the one containing the highest dilution of saliva and the one containing the least amount of penicillin G were considered as having the identical concentration of penicillin, i.e. the MIC of the staphylococcus aureus.

[2] = Local concentrations of penicillin in saliva after topical medication of various doses (Example VII); type: in vivo, human; settings: for Penicillin concentration in saliva / concentration at 0.1 h / concentration at 20 min / concentration at 40 min / concentration at 1 h / concentration at 2 h: studies 1-3; for concentration at 0.1 h / concentration at 20 min / concentration at 40 min / concentration at 1 h / concentration at 2 h: human, in vivo, topical or ocular; for concentration at 2 h: 120 min, after water at 60 min
Method: Five healthy adult volunteers, three men and two women, were selected for this study. The same volunteers were used as the subjects for three studies, and the results are summarized as follows.
On the day of study, two hours after breakfast, the volunteers were given a dose of 100 mg, 50 mg, 20 mg, 10 mg and 2 mg of USP grade penicillin G potassium powder respectively. The drug powder was placed in the right oral sulcus between the lower gum and the buccal mucosa to be dissolved in a minimum amount of saliva. This loculated pocket of saliva was not to be swallowed and was not to be further diluted by saliva from other parts of the mouth for one hour. At 6 minutes, 20 minutes, 40 minutes and 60 minutes after drug application, an aliquot of 0.01 ml was taken from this pocket of saliva and added into a test tube containing 10 ml of nutrient broth to give a 1,000 times dilution. After being mixed well, aliquots of the mixtures of saliva sample and nutrient broth were forced to pass through bacterial filters into sterile test tubes. Then 0.8 ml of each 1:1,000 diluted filtrate was pipetted and added to 3.2 ml of nutrient broth to make an additional 5 times dilution in a total volume of 4 ml. Two ml was pipetted from the latter to make a serial double dilution of saliva sample in 2 ml of nutrient broth, as described above under a, in 12 test tubes. The dilution factor for the saliva sample in test No. 1 was 1:5,000 and increased progressively to 1:10,240,000 in test tube No. 12.
After the 60-minute sample was taken, the subjects were given an 8 oz. glass of water to drink or to rinse his or her mouth, but refrained from drinking and eating for another hour. At the end of this last hour, i.e. about 2 hours after the drug application, another saliva sample of 0.2 ml was withdrawn and added to 3.8 ml of nutrient broth to make a 1:20 dilution and the mixture was forced to pass a bacterial filter into a sterile test tube. Two (2 ) ml of the filtrate was pipetted from this 1:20 diluted mixture for antibiotic activity assays.
Each filtered mixture in test tube was inoculated with 0.1 ml of a 1:1,000 dilution of a 12 hour broth culture of Staphylococcus aureus ATCC 29213.
A row of 6 test tubes each containing 2 ml of nutrient broth with decreasing concentrations of penicillin G potassium from 6.2 to 0.16 mcg/ml, using a serial double dilution method described in a., was prepared and similarly inoculated with 0.1 ml broth culture of Staphylococcus aureus ATCC 29213 as the standard.
All test tubes were incubated at 37° C. for 18 hours and observed for bacterial growth against an inoculated broth containing neither antibiotic nor saliva samples.
The test tube of the highest number with the highest dilution factor of saliva in nutrient broth in which no bacterial growth was observed was interpreted as containing an equivalent of penicillin G potassium at 0.75 mcg/ml. Using the dilution factors, it was calculated that, after topical application of 2 to 100 mg of penicillin G potassium dry powder, the concentrations of penicillin G potassium in the saliva at the site of medication within the first hour and one hour after purging the mouth with water were as follows.

What does the source list for `CC1(C)S[C@@H]2[C@H](NC(=O)Cc3ccccc3)C(=O)N2[C@H]1C(=O)O` [penicillin G potassium]?
local trough concentration in saliva [1]: 7.5 to 15 mg/mL; Penicillin concentration in saliva ([2]; 2 mg topical powder, 20 min): below 3.75 mg/ml; Penicillin concentration in saliva ([2]; 2 mg topical powder, 20 min, listed as Penicillin G Potassium): < 3.75 mg/mL; Penicillin concentration in saliva ([2]; 2 mg topical powder, 40 min): < 3.75 mg/mL; Penicillin concentration in saliva ([2]; 2 mg topical powder, 60 min): < 3.75 mg/mL; Penicillin concentration in saliva ([2]; 10 mg topical powder, 6 min): 60 mg/mL; Penicillin concentration in saliva ([2]; 10 mg topical powder, 60 min): 3.75 mg/mL and 7.5 mg/mL; Penicillin concentration in saliva ([2]; 20 mg topical powder, 6 min): 240 mg/mL and 120 mg/mL; Penicillin concentration in saliva ([2]; 20 mg topical powder, 20 min): 60 mg/mL; Penicillin concentration in saliva ([2]; 20 mg topical powder, 60 min): 7.5 mg/mL; Penicillin concentration in saliva ([2]; 50 mg topical powder, 6 min): 240 mg/mL and 480 mg/mL; Penicillin concentration in saliva ([2]; 50 mg topical powder, 20 min): 120 mg/mL and 240 mg/mL; Penicillin concentration in saliva ([2]; 50 mg topical powder, 60 min): 7.5 mg/mL; Penicillin concentration in saliva ([2]; 100 mg topical powder, 6 min): 480 mg/mL; Penicillin concentration in saliva ([2]; 100 mg topical powder, 20 min): 240 mg/mL and 120 mg/mL; Penicillin concentration in saliva ([2]; 100 mg topical powder, 40 min): 60 mg/mL; Penicillin concentration in saliva ([2]; 100 mg topical powder, 60 min): 30 mg/mL and 15 mg/mL; initial peak concentrations at the site of medication ([2]; doses of 2 mg to 100 mg powder): 7.5 to 960 mg/mL; dose required to maintain minimum 3.75 mg/ml in saliva for one hour ([2]; dry powder): at least 10 mg; concentration at 0.1 h ([2]; 2 mg topical powder, 6 min): 15000 µg/mL; concentration at 20 min ([2]; 2 mg topical powder, 20 min): 7500 µg/mL; concentration at 40 min ([2]; 2 mg topical powder, 40 min): 3750 µg/mL; concentration at 1 h ([2]; 2 mg topical powder, 60 min): < 3750 µg/mL; concentration at 2 h ([2]; 2 mg topical powder): < 15 µg/mL; concentration at 0.1 h ([2]; 10 mg topical powder, 6 min): 60000 µg/mL; concentration at 20 min ([2]; 10 mg topical powder, 20 min): 30000 µg/mL; concentration at 40 min ([2]; 10 mg topical powder, 40 min): 15000 µg/mL; concentration at 1 h ([2]; 10 mg topical powder, 60 min): 3750 µg/mL; concentration at 2 h ([2]; 10 mg topical powder): < 15 µg/mL; concentration at 0.1 h ([2]; 20 mg topical powder, 6 min): 120000 µg/mL; concentration at 20 min ([2]; 20 mg topical powder, 20 min): 60000 µg/mL; concentration at 40 min ([2]; 20 mg topical powder, 40 min): 7500 µg/mL; concentration at 1 h ([2]; 20 mg topical powder, 60 min): 7500 µg/mL; concentration at 2 h ([2]; 20 mg topical powder): < 15 µg/mL; concentration at 0.1 h ([2]; 50 mg topical powder, 6 min): 480000 µg/mL; concentration at 20 min ([2]; 50 mg topical powder, 20 min): 240000 µg/mL; concentration at 40 min ([2]; 50 mg topical powder, 40 min): 30000 µg/mL; concentration at 1 h ([2]; 50 mg topical powder, 60 min): 7500 µg/mL; concentration at 2 h ([2]; 50 mg topical powder): < 15 µg/mL; concentration at 0.1 h ([2]; 100 mg topical powder, 6 min): 960000 µg/mL; concentration at 20 min ([2]; 100 mg topical powder, 20 min): 240000 µg/mL; concentration at 40 min ([2]; 100 mg topical powder, 40 min): 30000 µg/mL; concentration at 1 h ([2]; 100 mg topical powder, 60 min): 15000 µg/mL; concentration at 2 h ([2]; 100 mg topical powder): < 15 µg/mL; concentration in saliva after drinking ([2]; one hour after 8 oz. of fluid, all doses): < 15 µg/mL

— patent publication US6248718A, “Lesion-directed dry dosage forms of antibacterial agents for the treatment of acute mucosal infections of the oral cavity” (priority 1999, dated 2001)
